Columns and labels:
adenosine A1 receptor [1] = target: T1, adenosine A1 receptor (Cavia porcellus, UniProt P47745); assay: A1 in vitro functional test: negative inotropic response, left atria, antagonism of NECA; format: cell-based, guinea pig; conditions: for Selectivity Ratio (A2 KB /A1 KB): functional; for Kb: guinea pig left atria, electrically evoked twitch, NECA agonist, 31° C, Schild plot, read-out: A1 KB (antagonist dissociation constant)
T1 construct: from tissue; host or cells: isolated guinea pig left atria
T1 sequence (P47745 1-326): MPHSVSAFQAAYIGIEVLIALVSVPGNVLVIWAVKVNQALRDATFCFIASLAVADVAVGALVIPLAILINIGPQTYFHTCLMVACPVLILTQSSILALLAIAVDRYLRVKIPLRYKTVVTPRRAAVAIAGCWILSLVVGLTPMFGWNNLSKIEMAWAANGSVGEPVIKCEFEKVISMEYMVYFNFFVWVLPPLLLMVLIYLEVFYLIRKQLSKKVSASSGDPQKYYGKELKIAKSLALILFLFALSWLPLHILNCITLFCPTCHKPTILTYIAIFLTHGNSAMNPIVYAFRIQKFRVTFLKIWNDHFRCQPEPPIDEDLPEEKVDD
Protocol: 2. Adenosine--A1 /A2 In Vitro Functional Tests
(A1 Assay: Negative inotropic response)-Guinea pig left atria were placed in organ baths filled with Krebs Henseleit solution gassed with 95% O2 and 5% CO2 and maintained at a temperature of 31° C. An initial resting tension of 1 gm. was placed on each tissue, which was allowed to equilibrate. Atria were stimulated electrically to produce twitch responses. A dose-response curve for the inhibition of the electrically-evoked twitch response was obtained by cumulative addition of the adenosine agonist […]. After the washout of the tissue, a fixed concentration of test compound was added and the tissue allowed to equilibrate for 1 hr. before cumulative additions of the adenosine agonist 5'-N-ethylcarboxamidoadenosine (NECA) to generate a new dose response curve. This procedure was repeated with different fixed concentrations of test compounds to generate a family of dose response curves. Schild plots were constructed from the resultant concentration-effect curves, and KB (antagonist dissociation constant) values were obtained. The results (see Table VII) are expressed as KB values (concentration of test compound such that one-half of the tissue adenosine receptor population is occupied by the test compound).

adenosine A2 receptor = assay: Receptor affinity (radioligand binding), A2, [3H]NECA; parameters: species or system bovine / guinea pig; conditions: room temperature, 1 hour
Protocol: (§1) 1. Receptor Affinity Experiments (Radioligand Binding)
(§2) Tissues (bovine caudate, guinea pig cortex, guinea pig striatum) were homogenized with a Brinkman polytron and the membranes were collected by centrifugation at 40,000×g at 4° C. for 10 min. The membranes were washed by resuspension and centrifugation, resuspended, and incubated in the presence of 1 U/ml adenosine deaminase for 15-30 min. at 37° C. The membranes were diluted, centrifuged once, and resuspended to a final concentration of 0.5-2 mg protein/ml. Adenosine deaminase (0.1 U/ml) was included in the final resuspension. Assays were initiated by addition of membranes. The compounds of the present invention were subjected to the following experimental conditions: A1 determinations/incubated with [^3 H]CHA at room temperature for 2 hours, A2 determinations/incubated with [^3 H]NECA at room temperature for 1 hour. Assays were terminated by filtration, and the filters were counted in scintillation counters.

adenosine A1 receptor [2] = target: T2, adenosine A1 receptor (Bos taurus, UniProt P28190); assay: Receptor affinity (radioligand binding), A1, [3H]CHA; parameters: species or system bovine; conditions: for Ki: [3H]CHA, room temperature, 2 hours, tissues listed: bovine caudate, guinea pig cortex, guinea pig striatum (only Example 13 marked guinea pig); for Selectivity Ratio (A2 Ki /A1 Ki): radioligand binding
T2 construct: were homogenized with a Brinkman polytron and the membranes were collected by centrifugation; from tissue; host or cells: bovine caudate membranes
T2 sequence (P28190 1-326): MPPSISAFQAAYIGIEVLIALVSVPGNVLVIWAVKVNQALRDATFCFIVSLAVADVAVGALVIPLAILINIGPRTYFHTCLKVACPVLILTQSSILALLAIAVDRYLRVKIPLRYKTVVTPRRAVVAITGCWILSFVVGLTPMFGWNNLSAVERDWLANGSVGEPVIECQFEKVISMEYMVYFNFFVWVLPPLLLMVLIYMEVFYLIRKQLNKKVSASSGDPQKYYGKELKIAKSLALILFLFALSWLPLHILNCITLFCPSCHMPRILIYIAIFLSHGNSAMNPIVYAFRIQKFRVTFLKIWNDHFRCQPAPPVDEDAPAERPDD
Protocol: as §1, §2

SMILES	Selectivity Ratio (A2 KB /A1 KB) (adenosine A1 receptor [1])	Kb (adenosine A1 receptor [1])	Ki (adenosine A2 receptor)	Ki (adenosine A1 receptor [2])	Selectivity Ratio (A2 Ki /A1 Ki) (adenosine A1 receptor [2])
Cn1c(C#N)nc2c(N[C@H]3C[C@H]4CC[C@@H]3C4)ncnc21 (relative stereo) [Example 1, (±)-N^6-(endo-2'-norbornyl)-8-cyano-9-methyladenine]	46	81 nM	1410 nM	3.89 nM	362
Cn1c(C(N)=O)nc2c(N[C@H]3C[C@H]4CC[C@@H]3C4)ncnc21 (relative stereo) [Example 2, (±)-N^6-(endo-2'-norbornyl)-8-amido-9-methyladenine]	> 390	257 nM	3550 nM	12.9 nM	275
CSc1nc2c(N[C@H]3C[C@H]4CC[C@@H]3C4)ncnc2n1C (relative stereo) [Example 3, (±)-N^6-[endo-2'-norbornyl]-8-methylthio-9-methyladenine]	> 1540	65 nM	398 nM	6.03 nM	66
COc1nc2c(N[C@H]3C[C@H]4CC[C@@H]3C4)ncnc2n1C (relative stereo) [Example 4, (±)-N^6-(endo-2'-norbornyl)-8-methoxy-9-methyladenine]	250	105 nM	513 nM	12 nM	43
CN(C)c1nc2c(N[C@H]3C[C@H]4CC[C@@H]3C4)ncnc2n1C (relative stereo) [Example 5, (+)-N^6-(endo-2'-norbornyl)-8-dimethylamino-9-methyladenine]	362	110 nM	617 nM	3.71 nM	166
CCN(CC)c1nc2c(N[C@H]3C[C@H]4CC[C@@H]3C4)ncnc2n1C (relative stereo) [Example 10, (±)-N^6-(endo-2'-norbornyl)-8-diethylamino-9-methyladenine]		117 nM	331 nM	1 nM	331
CC(C)N(C)c1nc2c(N[C@H]3C[C@@H]4C[C@H]3C[C@@H]4O)ncnc2n1C (relative stereo) [Example 16, (±)-N^6-[endo-2'-(endo-5'-hydroxy)norbornyl]-8-isopropylmethylamino-9-methyladenine]	4450	4 nM	234 nM	0.0891 nM	2,626
Cn1c(Br)nc2c(N[C@H]3C[C@@H]4C[C@H]3C[C@@H]4O)ncnc21 (relative stereo) [Example 17, (±)-N^6-[endo-2'-(endo-5'-hydroxy)norbornyl]-8-bromo-9-methyladenine]	65	30 nM	69.2 nM	1.17 nM	59
CN(C)c1nc2c(N[C@H]3C[C@@H]4C[C@H]3C[C@@H]4O)ncnc2n1C (relative stereo) [Example 18, (±)-N^6-[endo-2'-(endo-5'-hydroxy)norbornyl]-8-dimethylamino-9-methyladenine]		72 nM	275 nM	2.75 nM	100
Cn1c(Br)nc2c(N[C@H]3C[C@H]4CC(=O)[C@@H]3C4)ncnc21 (relative stereo) [Example 19]		115 nM	347 nM	3.47 nM	100
Cn1c(N2CCCCC2)nc2c(N[C@H]3C[C@H]4CC[C@@H]3C4)ncnc21 (relative stereo) [Example 20, (±)-N^6-(endo-2'-norbornyl)-8-piperidinyl-9-methyladenine]		240 nM	> 10000 nM	191 nM	> 52
Cn1cnc2c(N[C@H]3C[C@@H]4C[C@H]3C[C@@H]4O)ncnc21 (relative stereo) [Example 21, (±)-N^6-[endo-2'-(endo-5'-hydroxy)-norbornyl]-9-methyladenine]	324	309 nM	3160 nM	19.1 nM	165
Cn1cnc2c(N[C@H]3C[C@@H]4C[C@H]3C[C@H]4O)ncnc21 (relative stereo) [Example 22]		2950 nM	31600 nM	97.7 nM	323
Cn1cnc2c(N[C@H]3C[C@@H]4C[C@H]3[C@@H](O)C4)ncnc21 (relative stereo) [Example 23]		3800 nM	31600 nM	85.1 nM	371
Cn1cnc2c(N[C@H]3C[C@@H]4C[C@H]3[C@H](O)C4)ncnc21 (relative stereo) [Example 24]		4680 nM	21400 nM	141 nM	152
Cn1cnc2c(N[C@H]3C[C@H]4C[C@@H]3C[C@@H]4O)ncnc21 (relative stereo) [Example 30, (±)-N^6-[exo-2',(exo-5'-hydroxy)-norbornyl]-9-methyladenine]		1310 nM	42700 nM	363 nM	1,176
Cn1cnc2c(N[C@H]3C[C@H]4C[C@@H]3C[C@H]4O)ncnc21 (relative stereo) [Example 31]		4070 nM	14400 nM	105 nM	137
Cn1cnc2c(N[C@H]3C[C@H]4C[C@@H]3[C@@H](O)C4)ncnc21 (relative stereo) [Example 32]		6030 nM	> 10000 nM	51.3 nM	> 195
Cn1cnc2c(N[C@@H]3C[C@H]4C[C@@H]3c3ccc(O)cc34)ncnc21 (relative stereo) [Example 36, (±)-N^6-[endo-2'-(5',6'-(6"-hydroxy)benzo)norbornyl]-9-methyladenine]		275 nM	631 nM	2 nM	316
Cn1cnc2c(N[C@H]3C[C@H]4C[C@@H]3c3ccccc34)ncnc21 (relative stereo) [Example 38]		1580 nM	5890 nM	17.8 nM	331
Cn1cnc2c(N[C@@H]3C[C@H]4C[C@@H]3c3ccccc34)ncnc21 (relative stereo) [Example 39]		28800 nM	15500 nM	468 nM	33
COc1ccc2c(c1)[C@H]1C[C@H](Nc3ncnc4c3ncn4C)[C@@H]2C1 (relative stereo) [Example 40]		1120 nM	5620 nM	8.91 nM	631
COc1ccc2c(c1)[C@@H]1C[C@H]2[C@H](Nc2ncnc3c2ncn3C)C1 (relative stereo) [Example 41]		64600 nM	> 10000 nM	209 nM	> 48
Cn1cnc2c(N[C@@H]3C[C@@H]4CC[C@H]3C4)ncnc21 (relative stereo) [Example 49, N^6-(endo-2-norbornyl)-9-methyladenine, reference compound]	36	550 nM	6170 nM	10 nM	617
Cn1c(N2CCOCC2)nc2c(NC3CCCC3)ncnc21 [Example 15]			> 10000 nM	42 nM	> 238

Source: patent US5670501A, “N-substituted 9-alkyladenines” (Discovery Therapeutics, Inc., priority 1994, dated 1997)
